From patent publication US8236354B1, “Use of immunomodulators for the treatment of cancer” (ZOR Pharmaceuticals, LLC, priority 2012, dated 2012)

What was measured:
[1] = in vivo
Method: (§1) VIRULIZIN® or placebo was administered as intramuscular injections of 3 mL with dosing 3 times weekly (Monday, Wednesday, Friday) in Stages 1, 2 and 3.
(§2) Following pain stabilization screening, all randomized patients in Stages 1 and 2 received 30-minute intravenous infusions of gemcitabine at a dose of 1 g/m2 weekly for the first 7 weeks, followed by a week of rest. Subsequent cycles consisted of 28-day cycles with gemcitabine dosing on days 1, 8 and 15. Guidelines for dose reduction in case of toxicity were provided from the Official Product Prescribing Guidelines. Dosing continued until intolerance to gemcitabine developed, or there was symptom progression, or no evidence of clinical benefit. […] The patient's physician made the decision concerning 5-FU chemotherapy or best supportive care.
Safety was evaluated based upon adverse events (AEs), laboratory tests, and vital signs.

[2] = system: advanced (unresectable or metastatic) pancreatic adenocarcinoma; assay: Phase 3 double-blind, randomized, placebo-controlled 3-stage trial: survival and time to symptom progression; assay type: in vivo, human; conditions: for Median survival time from entry into study Stage 3 to death from any cause: Stage 3 test product with or without 5-FU
Method: This was a double-blind, multicenter, randomized, 2-arm, parallel group, 3-stage trial. Median survival was the primary end-point calculated from Kaplan-Meier plots of survival of the Intention to Treat data set.
The blood pharmacokinetic profiles of gemcitabine and VIRULIZIN® were assessed by an independent (unblinded) pharmacokinetics assessor. Stage 1 was performed at selected sites. Immune stimulation assays were also to be performed in these patients.
The decision to discontinue patients from Stage 2 and move them into Stage 3 and to continue or discontinue study treatment was at the discretion of the investigator.
However, if the investigator believed further chemotherapy was not in the best interest of the patient (based on hematological profile, symptom progression or no evidence of clinical benefit), the patient continued to receive best supportive care, with or without continued injections of VIRULIZIN® or placebo. The first 18 patients entering Stage 3 and receiving VIRULIZIN® or placebo plus intravenous infusions of 5-FU were to have blood samples taken to assess the pre- and post-dose plasma concentrations of 5-FU.
Male or female patients, aged 18 years or older, with advanced (unresectable or metastatic) pancreatic adenocarcinoma (tumor staging definition—tumor, lymph nodes, metastasis [TNM] stages II, III or IV) who had not received previous systemic chemotherapy, who had Eastern Cooperative Oncology Group (ECOG) Score 0, 1 or 2, and life expectancy greater than or equal to 12 weeks were included in the study.
as §1, §2
Efficacy was evaluated based upon survival time, defined as the time from Baseline/Treatment Day 1 to the time of death from any cause. Time to progression of symptoms, consisting of: time to increase in pain (with consideration of analgesic consumption), time to deterioration in ECOG score, and time to weight loss.

[3] = system: advanced pancreatic cancer; conditions: cited from earlier work
[4] = Efficacy evaluable, ECOG 0 or 1, value (95% CI)
[5] = Efficacy evaluable, Overall, value (95% CI)
[6] = Intention to Treat, ECOG 0 or 1, value (95% CI)
[7] = Intention to Treat, Metastatic, value (95% CI)
[8] = Intention to Treat, Overall, value (95% CI)

Nc1ccn([C@@H]2O[C@H](CO)[C@@H](O)C2(F)F)c(=O)n1 [Placebo plus gemcitabine, gemcitabine]
Abdominal pain (not otherwise specified): (%) of Patients [1]: (26.2) % | Abdominal pain (not otherwise specified): Number of Events [1]: 96 | Abdominal pain (not otherwise specified): Number of Patients [1]: 56 | Abdominal pain upper: (%) of Patients [1]: (11.7) % | Abdominal pain upper: Number of Events [1]: 35 | Abdominal pain upper: Number of Patients [1]: 25 | Alanine aminotransferase increased: (%) of Patients [1]: (7.0) % | Alanine aminotransferase increased: Number of Events [1]: 21 | Alanine aminotransferase increased: Number of Patients [1]: 15 | Anemia (not otherwise specified): (%) of Patients [1]: (43.9) % | Anemia (not otherwise specified): Number of Events [1]: 206 | Anemia (not otherwise specified): Number of Patients [1]: 94 | Anorexia: (%) of Patients [1]: (23.8) % | Anorexia: Number of Events [1]: 71 | Anorexia: Number of Patients [1]: 51 | Ascites: (%) of Patients [1]: (17.8) % | Ascites: Number of Events [1]: 51 | Ascites: Number of Patients [1]: 38 | Aspartate aminotransferase increased: (%) of Patients [1]: (8.9) % | Aspartate aminotransferase increased: Number of Events [1]: 27 | Aspartate aminotransferase increased: Number of Patients [1]: 19 | Back pain: (%) of Patients [1]: (9.8) % | Back pain: Number of Events [1]: 30 | Back pain: Number of Patients [1]: 21 | Blood alkaline phosphatase increased (not otherwise specified): (%) of Patients [1]: (9.8) % | Blood alkaline phosphatase increased (not otherwise specified): Number of Events [1]: 28 | Blood alkaline phosphatase increased (not otherwise specified): Number of Patients [1]: 21 | Constipation: (%) of Patients [1]: (18.7) % | Constipation: Number of Events [1]: 57 | Constipation: Number of Patients [1]: 40 | Dehydration: (%) of Patients [1]: (8.9) % | Dehydration: Number of Events [1]: 26 | Dehydration: Number of Patients [1]: 19 | Diarrhea (not otherwise specified): (%) of Patients [1]: (21.5) % | Diarrhea (not otherwise specified): Number of Events [1]: 79 | Diarrhea (not otherwise specified): Number of Patients [1]: 46 | Disease progression (not otherwise specified): (%) of Patients [1]: (11.7) % | Disease progression (not otherwise specified): Number of Events [1]: 25 | Disease progression (not otherwise specified): Number of Patients [1]: 25 | Dyspnea (not otherwise specified): (%) of Patients [1]: (15.4) % | Dyspnea (not otherwise specified): Number of Events [1]: 46 | Dyspnea (not otherwise specified): Number of Patients [1]: 33 | Edema peripheral: (%) of Patients [1]: (24.3) % | Edema peripheral: Number of Events [1]: 76 | Edema peripheral: Number of Patients [1]: 52 | Fatigue: (%) of Patients [1]: (36.0) % | Fatigue: Number of Events [1]: 178 | Fatigue: Number of Patients [1]: 77 | Headache (not otherwise specified): (%) of Patients [1]: (6.5) % | Headache (not otherwise specified): Number of Events [1]: 42 | Headache (not otherwise specified): Number of Patients [1]: 14 | Jaundice (not otherwise specified): (%) of Patients [1]: (11.7) % | Jaundice (not otherwise specified): Number of Events [1]: 30 | Jaundice (not otherwise specified): Number of Patients [1]: 25 | Leukopenia (not otherwise specified): (%) of Patients [1]: (13.6) % | Leukopenia (not otherwise specified): Number of Events [1]: 67 | Leukopenia (not otherwise specified): Number of Patients [1]: 29 | Nausea: (%) of Patients [1]: (42.1) % | Nausea: Number of Events [1]: 269 | Nausea: Number of Patients [1]: 90 | Neutropenia: (%) of Patients [1]: (32.2) % | Neutropenia: Number of Events [1]: 212 | Neutropenia: Number of Patients [1]: 69 | Pyrexia: (%) of Patients [1]: (30.4) % | Pyrexia: Number of Events [1]: 184 | Pyrexia: Number of Patients [1]: 65 | Rash (not otherwise specified): (%) of Patients [1]: (9.3) % | Rash (not otherwise specified): Number of Events [1]: 26 | Rash (not otherwise specified): Number of Patients [1]: 20 | Rigors: (%) of Patients [1]: (15.4) % | Rigors: Number of Events [1]: 97 | Rigors: Number of Patients [1]: 33 | Thrombocytopenia: (%) of Patients [1]: (29.9) % | Thrombocytopenia: Number of Events [1]: 196 | Thrombocytopenia: Number of Patients [1]: 64 | Vomiting (not otherwise specified): (%) of Patients [1]: (29.4) % | Vomiting (not otherwise specified): Number of Events [1]: 141 | Vomiting (not otherwise specified): Number of Patients [1]: 63 | Weakness: (%) of Patients [1]: (23.8) % | Weakness: Number of Events [1]: 82 | Weakness: Number of Patients [1]: 51 | Weight decreased: (%) of Patients [1]: (12.1) % | Weight decreased: Number of Events [1]: 38 | Weight decreased: Number of Patients [1]: 26 | Median survival time, study enrollment to death from any cause [2, 4]: 6.3 (5.0 to 7.2) months | Percent 12-Month Survival [2, 4]: 20.1 (12.8 to 27.4) % | Median survival time, study enrollment to death from any cause ([2]; Efficacy evaluable, ECOG 2, value (95% CI)): 5.5 (4.3 to 7.4) months | Median survival time, study enrollment to death from any cause ([2]; Efficacy evaluable, Locally advanced disease, value (95% CI)): 8.1 (7.1 to 11.2) months | Median survival time, study enrollment to death from any cause ([2]; Efficacy evaluable, Metastatic disease, value (95% CI)): 5.0 (4.3 to 6.0) months | Percent 12-Month Survival ([2]; Efficacy evaluable, Metastatic, value (95% CI)): 10.9 (5.4 to 16.4) % | Median survival time, study enrollment to death from any cause [2, 5]: 6.0 (5.1 to 7.0) months | Percent 12-Month Survival [2, 5]: 16.9 (11.2 to 22.6) % | Median survival time, study enrollment to death from any cause ([2]; Efficacy evaluable, Patients participating in study Stage 3, value (95% CI)): 7.4 (6.8 to 8.6) months | median duration of participation in study Stages 1 and/or 2 ([2]; FIG. 5, 248 Intention to Treat patients who participated in study Stage 3): 6.31 months | median duration of participation in study Stages 1 and/or 2 ([2]; FIG. 6, Stage 3 participants, High ECOG score of 2): 6.31 months | median duration of participation in study Stages 1 and/or 2 ([2]; FIG. 6, Stage 3 participants, Low ECOG score of 0 or 1): 7.13 months | Median survival time from study enrollment to death from any cause [2, 6]: 6.4 (5.0 to 7.3) months | Percent 12-Month Survival [2, 6]: 21.1 (14.3 to 28.0) % | Median survival time from study enrollment to death from any cause ([2]; Intention to Treat, ECOG 0 or 1, value (95% CI), listed as placebo and gemcitabine): 6.4 months | Median survival time from study enrollment to death from any cause ([2]; Intention to Treat, ECOG 0 or 1, value (95% CI), listed as placebo plus gemcitabine): 6.4 months | Median survival time from study enrollment to death from any cause ([2]; Intention to Treat, ECOG 2, value (95% CI)): 5.1 (4.1 to 6.8) months | Median survival time from study enrollment to death from any cause ([2]; Intention to Treat, ECOG 2, value (95% CI), listed as placebo and gemcitabine): 5.1 months | Median survival time from study enrollment to death from any cause ([2]; Intention to Treat, ECOG 2, value (95% CI), listed as placebo plus gemcitabine): 6.4 months | time to progression of pain from time of randomization ([2]; Intention to Treat, ECOG score of 0 or 1): 9.0 mo | Median survival time from study enrollment to death from any cause ([2]; Intention to Treat, Locally advanced, value (95% CI)): 8.4 (7.1 to 11.2) months | Median survival time from study enrollment to death from any cause [2, 7]: 5.0 (4.3 to 6.0) months | Percent 12-Month Survival [2, 7]: 13.3 (8.0 to 18.6) % | Median survival time from study enrollment to death from any cause [2, 8]: 6.0 (5.1 to 7.0) months | Percent 12-Month Survival [2, 8]: 17.7 (12.3 to 23.0) % | Median survival time from study enrollment to death from any cause ([2]; Intention to Treat, Overall, value (95% CI), listed as placebo plus gemcitabine): 6.0 months | Median survival time from study enrollment to death from any cause ([2]; Intention to Treat, Patients participating in study Stage 3, value (95% CI)): 7.5 (6.8 to 9.4) months | Median survival time from study enrollment to death from any cause ([2]; Intention to Treat, Patients participating in study Stage 3, value (95% CI), listed as placebo plus gemcitabine): 7.5 months | Median survival time from entry into study Stage 3 to death from any cause ([2]; Intention to Treat, ECOG 0 or 1): 3.19 months | Median survival time from entry into study Stage 3 to death from any cause ([2]; Intention to Treat, ECOG 2): 2.79 months | Median survival time from entry into study Stage 3 to death from any cause ([2]; Intention to Treat, Overall): 2.96 months | Median survival time from study enrollment to death from any cause ([2]; Intention to Treat, patients participating in study Stage 3, ECOG 0 or 1): 7.13 months | Median survival time from study enrollment to death from any cause ([2]; Intention to Treat, patients participating in study Stage 3, ECOG 2): 6.31 months

Nc1ccn([C@@H]2O[C@H](CO)[C@@H](O)C2(F)F)c(=O)n1 [gemcitabine]
increased median survival versus 5-FU ([3]; in vivo): 1.5 months | median Overall Survival ([3]; survival from study enrollment to death from any cause): 5.7 months
